Where “and” joins values, the source holds several entries; their conditions need not be identical. Identical values can stand only once. No end group written: not given here.
Key:
[1] = Locomotor activity test (spontaneous behavioral arousal) in old C57 Black mice; type: in vivo
Description: Six weeks after assignment of the doses, surviving animals were examined in a standard locomotor activity test used to detect evidence of a reversal of age-related declines in spontaneous behavioral arousal (Forster et al., 1996; Dubey et al., Arch. Biochem. Biophys., 333: 189-197 (1996)). Arousal levels were measured using a Digiscan apparatus (Omnitech, model RXYZCM, Omnitech Electronics, Columbus, Ohio, USA). Each mouse was placed in a clear acrylic chamber (40.5 cm×40.5 cm×30.5 cm) for a […] session. The acrylic chamber was placed in a metal frame lined with arrays of photocells. A wooden cabinet with sheets of insulation enclosed the acrylic chamber and the metal frame. Fans provided an 80-db ambient noise level within the chamber. Movements of the mouse within the horizontal plane interrupted the photobeams, which were automatically recorded by a computer within 1-minute time samples. The measure used in this study was the average horizontal photobeam interruptions per minute, over a 16-minute testing session (horizontal counts/min).
The locomotor activity test was performed on blinded Groups 1, 2, 3, 4, 5, and 6, (young untreated control, old untreated control, old treated with PEP-1 at 0.025 mg/kg 0.075 mg/kg, 0.25 mg/kg, and 0.75 mg/kg, respectively) six weeks after assignment of the doses. A significant difference between the young and old untreated control groups was found (p<0.05), verifying previous findings of the age-associated decrease in spontaneous behavioral arousal.

SOD [2] = assay: SOD level in brain of old C57 Black mice, 30 days daily oral gavage; type: in vivo; conditions: 18-month old mice
Description: As a further examination of the dose-response effect on upregulating SOD in “old” adult C57 Black mice, young and old animals were divided into the following treatment groups (n=3): • Animals 1-3: Young, 4-month old mice, untreated • Animals 4-6: Old, 18-month old mice, untreated • Animals 7-9: Old, 18-month old mice treated daily by oral gavage 0.33 mg/kg of PEP-1 • Animals 10-1 2: Old, 18-month old mice treated daily by oral gavage 3.3 mg/kg of PEP-1
At the end of 30 days, all animals were sacrificed and their brains were harvested. SOD level was analyzed by Western immunoblot. A SOD standard (“M”) was also run alongside the samples. The SOD levels were quantitated by densitometry measurements of the immunoblot.

CAT = assay: In vivo CAT upregulation in rat brain and heart after iv injection (Western immunoblot); parameters: species or system Sprague-Dawley rats; conditions: 1.2 mg/kg iv, 6 hours post injection
Description: (§1) In vivo experiments were carried out in Sprague-Dawley rats (300-325 g) with solutions of peptide compounds PEP-1 and PEP-3. The animals were injected intravenously (iv) via the tail vein with a peptide compound. Each animal received one injection of peptide compound in normal saline at total dose equivalent of 1.2 or 2.4 mg peptide compound/kg body weight. The animals were sacrificed by decapitation at 6 hours post injection and dissected to isolate brain and heart organs, which were frozen at −70° C. for subsequent analysis by Western immunoblots.
(§2) Each tissue was thawed and homogenized in a Down's homogenizer using ten volumes of homogenizer buffer (see, Adams et al., […], 77: 221-233 (2000); buffer as described in Adams et al., J. Leukoc. Biol., 62: 865-875 […]) to obtain a crude cytoplasmic fraction. The tissue homogenates were centrifuged (14,000×g for 5 minutes at 4° C.) to yield the supernatant purified cytoplasmic protein fractions for Western immunoblot analysis as described in Adams et al. (J. Cell. Biochem., 77: 221-233 (2000)). A 10 μg sample of each protein fraction was then separated by SDS polyacrylamide gel electrophoresis (SDS-PAGE) and analyzed for SOD and CAT content by Western blot assay as above.
(§3) Controls for measurement of unstimulated levels of SOD were obtained from two vehicle-only (i.e., no peptide compound), injected rats that were sacrificed at 6 hours post injection. Both had essentially the same unstimulated level of SOD. Standard quantities of each cytoplasmic fraction (10 μg) were loaded on a lane of a gel for electrophoretic separation and Western immunoblot analysis (Adams et al., J. Cell. Biochem., 77: 221-233 (2000)). The stained gels were photographed and scanned by laser densitometry to quantify intensities in comparison to enzyme levels for control vehicle treated rats.

SOD [3] = assay: SOD level in brain of old C57 Black mice, 14 days oral gavage on various schedules; type: in vivo; conditions: 18-month old mice
Description: Adult 18-month old C57 Black mice (“old mice”) were treated with 0.25 mg/kg of PEP-1 by oral gavage for a period of 14 days. The animals belonged to the following 5 treatment groups (n=3 per group): • Group 1: Control, untreated • Group 2: Treatment once per week • Group 3: Treatment twice per week • Group 4: Treatment every other day • Group 5: Daily treatment
At the end of 14 days, all animals were sacrificed and their brains were harvested and the SOD level was analyzed by Western immunoblot as described above. A SOD standard (“M”) was also run alongside the samples. The SOD levels were quantitated by densitometry measurements of the blot.

[4] = Survival (longevity) of old C57 Black mice over 70-day treatment; type: in vivo; conditions: old 16-month mice
Source text: This study was designed to examine the in vivo effect of daily administration of a representative peptide compound, PEP-1, to reverse age-related declines in spontaneous behavioral arousal as measured by effect on locomotor activity and longevity of “old” adult individuals. In this study, C57 Black mice were divided into the following treatment groups (n=10 per group): • Group 1: Young, 4-month old mice, untreated • Group 2: Old, 16-month old mice, untreated • Group 3: Old, 16-month old mice treated daily by oral gavage with 0.025 mg/kg of PEP-1
Group 4: Old, 16-month old mice treated daily by oral gavage with 0.075 mg/kg of PEP-1 • Group 5: Old, 16-month old mice treated daily by oral gavage with 0.25 mg/kg of PEP-1 • Group 6: Old, 16-month old mice treated daily by oral gavage with 0.75 mg/kg of PEP-1 • Group 7: Old, 16-month old mice treated daily by oral gavage with 2.5 mg/kg of PEP-1
At the end of a 70-day treatment period, all of the young, untreated mice (Group 1) were alive (i.e., to an age of 6.5 months), but 3 of the 10 untreated old mice (Group 2) had died. Also, 2 animals in each of Groups 3 and 4 died during this same period.

SOD [5] = assay: In vivo SOD upregulation in rat brain and heart after iv injection (Western immunoblot); parameters: species or system Sprague-Dawley rats; conditions: 1.2 mg/kg iv, 6 hours post injection
Description: as §1, §2, §3

SOD-1 = assay: PEP-2-dependent upregulation of SOD-1 in rat cortical cell cultures (Western immunoblot, densitometry); type: cell-based; conditions: 5 hours, rat brain cortical cells, vs vehicle control
Description: Primary cortical cultures were obtained by growing newborn rat brain cortical cells in Delbecco's modified Eagle medium supplemented with 100 units/ml of penicillin G, 100 μg/ml of streptomycin, and 10% fetal calf serum. The cells were isolated from the E-21 cortex of rat brain, plated at a density of 1×10^5 per ml and grown to confluence within four to five days in an atmosphere containing air and 5% CO2 at 37° C. as described in Cornell-Bell et al., Science, 247: 470473 (1990) and Cell Calcium, 12: 185-204 (1991). Cultures were grown in 20 ml flasks as a monolayer and then exposed to various concentrations of peptide for studies of the effects of PEP-2 on upregulation of the gene for SOD. Cultures of the rat brain cortical cells were incubated with 1 ng/ml, 10 ng/ml, and 100 ng/ml of peptide compound PEP-2 for durations of 5 hours. Control cultures were treated in the same manner, but were not incubated with PEP-2.
Cytoplasmic proteins were isolated according to published methods (Adams et al., J. Leukoc. Biol. 62: 865-873 (1997)). The cell cultures were washed once in phosphate buffer saline (PBS) containing 20 mM EDTA and then suspended in 250 μl of freshly prepared lysis buffer (20 mM Hepes, pH 7.9, 10 mM KCl, 300 mM NaCl, 1 mM MgCl2, 0.1% Triton X-100 nonionic detergent, 20% glycerol, 0.5 mM dithiothreitol (DTT), freshly supplemented with inhibitors as described in Adams et al., J. Biol. Chem., 77: 221-233 (2000)). The suspensions were then incubated for at least 10 minutes on ice to lyse cells and then centrifuged (14,000×g for 5 minutes at 4° C.) to pellet cell debris. The supernatant cytoplasmic fractions were removed and stored as aliquots at −80° C. for analysis. […]
The cytoplasmic proteins were separated by SDS-PAGE using 5 μg/lane on the gels for analysis by Western immunoblots. […] SOD expression was detected in the Western blots using anti-SOD rabbit polyclonal antibody (Rockland, Inc., Gilbertville, Pa.). The Western blots were also analyzed by laser densitometry to quantify SOD protein upregulation. […]

[Ac] Asp Gly Glu Ala (Ac-DGEA) [PEP-1]
horizontal locomotor activity (horizontal counts/min) ([1]; 0.025 mg/kg daily oral, six weeks (Group 3)): failed to differ significantly from the old controls
horizontal locomotor activity (horizontal counts/min) ([1]; 0.075 mg/kg daily oral, six weeks (Group 4)): higher than that of the old controls
horizontal locomotor activity (horizontal counts/min) ([1]; 0.25 mg/kg daily oral, six weeks (Group 5)): higher than that of the old controls
horizontal locomotor activity (horizontal counts/min) ([1]; 0.75 mg/kg daily oral, six weeks (Group 6)): higher than that of the old controls
increase in SOD level compared to untreated old control (SOD [2]; 0.33 mg/kg oral daily): 2.9 fold
level of SOD expression in brain tissue compared to untreated old control (SOD [2]; 3.3 mg/kg oral daily): 4.8 fold
SOD-related breakdown fragments (SOD [2]; brain, 0.33 or 3.3 mg/kg oral daily): no change
CAT (Fold increase) (CAT; rat brain): 1.0 fold
CAT (Fold increase) (CAT; rat heart): 1.1 fold
SOD level elevation compared to control group (SOD [3]; 0.25 mg/kg oral gavage daily): over 4.5 fold
SOD level elevation compared to control group (SOD [3]; 0.25 mg/kg oral gavage every other day): over 4.5 fold
increase in SOD level compared to control group (SOD [3]; 0.25 mg/kg oral gavage twice per week): 2.3 fold
animals that died during 70-day treatment period ([4]; 0.025 mg/kg daily oral gavage, n=10 (Group 3)): 2 animals
animals that died during 70-day treatment period ([4]; 0.075 mg/kg daily oral gavage, n=10 (Group 4)): 2 animals
survival over 70-day treatment period ([4]; 0.25 mg/kg daily oral gavage, n=10 (Group 5)): all of the old mice treated with PEP-1 survived
survival over 70-day treatment period ([4]; 0.75 mg/kg daily oral gavage, n=10 (Group 6)): all of the old mice treated with PEP-1 survived
survival over 70-day treatment period ([4]; 2.5 mg/kg daily oral gavage, n=10 (Group 7)): all of the old mice treated with PEP-1 survived
SOD (Fold increase) (SOD [5]; rat brain): 1.0 fold
SOD (Fold increase) (SOD [5]; rat heart): 1.0 fold

[Ac] Asp Gly Leu Glu Ala (Ac-DGLEA) [PEP-3]
CAT (Fold increase) (CAT; rat brain): 1.0 fold
CAT (Fold increase) (CAT; rat heart): 1.0 fold
SOD (Fold increase) (SOD [5]; rat brain): 1.0 fold
SOD (Fold increase) (SOD [5]; rat heart): 1.2 fold

[Ac] Asp Gly Glu Ala Leu (Ac-DGEAL) [PEP-2]
Fold-Increase in SOD Expression (SOD-1; 1 ng/ml): 2 fold and 1.8 fold
Fold-Increase in SOD Expression (SOD-1; 10 ng/ml): 1.9 fold
Fold-Increase in SOD Expression (SOD-1; 100 ng/ml): 2.1 fold

Source: patent US20050130902A1, “Peptide compounds for counteracting reactive oxygen species and free radicals” (priority 2001, published 2005)
